The results in this text go back to patent US7778779B2, “Method of identifying a chemical entity which is a hydroxylase modulator” (Isis Innovation Limited, priority 2002, dated 2010).

For orientation: IC50 means the concentration that inhibits the measured activity by half. A low value points to greater potency.

Common to all, as to type: biochemical
Assay [1] has as its target T1, FIH (Homo sapiens, UniProt Q9NWT6).
T1 construct: His6 (N, cleaved yes); made in house; host or cells: Escherichia coli BL21(DE3), pET28a(+)
The assay is described as follows: kinetic analyses of N-oxaloyl amino acid inhibitors of FIH. Particulars: for IC50: inhibition of FIH, kinetic analyses.

Assay [2] has as its system procollagen prolyl-hydroxylase. The assay can be described thus: inhibition of procollagen prolyl-hydroxylase by N-oxaloylalanine enantiomers. Particulars: S- versus R-enantiomer. An excerpt: (§1) Such inhibitors may or may not chelate to an active site metal.
In assay [3] the test system is PHD isozymes. The assay can be described thus: inhibition of PHD isozymes by N-oxaloylalanine enantiomers. The following applies: S- versus R-enantiomer.
Source text: as §1

T1 sequence (Q9NWT6 whole entry): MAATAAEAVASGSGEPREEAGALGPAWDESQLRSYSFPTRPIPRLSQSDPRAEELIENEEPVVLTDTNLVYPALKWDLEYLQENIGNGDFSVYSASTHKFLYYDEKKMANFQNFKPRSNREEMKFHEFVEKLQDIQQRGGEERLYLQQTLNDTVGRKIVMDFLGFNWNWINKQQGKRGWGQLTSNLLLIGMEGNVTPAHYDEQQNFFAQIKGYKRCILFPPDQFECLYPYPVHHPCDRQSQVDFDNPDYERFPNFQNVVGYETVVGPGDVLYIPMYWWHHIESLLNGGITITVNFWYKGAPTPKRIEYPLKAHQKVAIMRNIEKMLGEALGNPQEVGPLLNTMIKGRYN

In turn, `C[C@H](NC(=O)C(=O)O)C(=O)O` (single isomer, unassigned) [R-enantiomer, N-oxaloylalanine] displayed an IC50 in assay [1] of 0.4 mM.
Regarding `O=C(O)CNC(=O)C(=O)O` [NOG, N-oxaloylglycine, reference compound], the “inhibition of FIH, in words” value in assay [1] (used as 2OG analogue in co-crystallisation) is recorded as “FIH inhibitor”.
Regarding `C[C@H](NC(=O)C(=O)O)C(=O)O` [S-enantiomer, N-oxaloylalanine], the “relative potency of enantiomers (reversed selectivity)” value in assay [2] and in assay [3] was “more potent” in each case. This molecule had a 50% inhibitory concentration (IC50) in assay [1] of 2.5 mM.
